Measurements taken from ChEMBL document CHEMBL1136628, “Acylcyclohexanedione derivatives as potential in vivo sequential inhibitors of 4-hydroxyphenylpyruvate dioxygenase and GA(20) 3beta-hydroxylase” (Bioorg Med Chem Lett, 2003).

Biological target: 4-hydroxyphenylpyruvate dioxygenase (Sus scrofa, UniProt Q02110)
Assay: In vitro inhibitory concentration required against 4-hydroxyphenylpyruvate dioxygenase (4-HPPD) taken from pig liver

Chain of 4-hydroxyphenylpyruvate dioxygenase (Q02110 whole entry): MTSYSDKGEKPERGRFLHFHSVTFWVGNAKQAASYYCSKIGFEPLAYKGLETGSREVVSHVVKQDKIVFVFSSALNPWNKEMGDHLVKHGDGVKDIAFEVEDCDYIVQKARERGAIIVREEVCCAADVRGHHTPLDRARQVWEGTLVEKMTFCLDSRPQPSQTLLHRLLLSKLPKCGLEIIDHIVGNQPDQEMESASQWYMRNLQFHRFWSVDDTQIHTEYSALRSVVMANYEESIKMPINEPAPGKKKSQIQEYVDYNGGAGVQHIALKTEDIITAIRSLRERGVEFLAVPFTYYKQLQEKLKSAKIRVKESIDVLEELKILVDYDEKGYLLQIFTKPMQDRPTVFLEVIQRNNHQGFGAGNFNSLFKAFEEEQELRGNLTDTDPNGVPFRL

IC50: 10 µM
SMILES: CCOC(=O)C1CC(=O)C(C(=O)C2CC2)=C(NC(=O)C2CC2)C1 (stereo unspecified)
